Experimental data taken from patent US12655116B2, “Substituted isophthalic acid diamides” (Bayer Aktiengesellschaft, priority 2020, dated 2026).

Legend:
ABUTH [1] = assay: Pre-emergence herbicidal action against ABUTH; type: in vivo, Abutilon theophrasti; conditions: Abutilon theophrasti, 504 h; for pest or weed control at 80 g/ha: scored visually after 3 weeks vs untreated controls (100% = plants have died, 0% = like control plants)
Outline: (§1)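 Greenhouse pots of sandy loam held seeds covered with soil, onto which the compound was applied before emergence. An aqueous suspension or emulsion of WP or EC was used at 600 to 800 l/ha with 0.2% wetting agent. Percent damage was judged visually at 3 weeks.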

ALOMY [2] = assay: Pre-emergence herbicidal action against ALOMY; type: in vivo, Alopecurus myosuroides; conditions: Alopecurus myosuroides, 504 h, pre-emergence
Outline: as §1

AMARE [3] = assay: Pre-emergence herbicidal action against AMARE; type: in vivo, Amaranthus retroflexus; conditions: Amaranthus retroflexus, 504 h, 100% = plants have died, 0% = like control plants
Outline: as §1

AVEFA [4] = assay: Pre-emergence herbicidal action against AVEFA; type: in vivo, Avena fatua; conditions: Avena fatua, 504 h, pre-emergence
Outline: as §1

ECHCG [5] = assay: Pre-emergence herbicidal action against ECHCG; type: in vivo, Echinochloa crus-galli; conditions: Echinochloa crus-galli, 504 h
Outline: as §1

HORMU [6] = assay: Pre-emergence herbicidal action against HORMU; type: in vivo, Hordeum murinum; conditions: Hordeum murinum, 504 h, pre-emergence
Outline: as §1

MATIN [7] = assay: Pre-emergence herbicidal action against MATIN; type: in vivo, Matricaria inodora; conditions: Tripleurospermum inodorum, 504 h; for pest or weed control at 80 g/ha: dosage 80 g/ha
Outline: as §1

PHBPU [8] = assay: Pre-emergence herbicidal action against PHBPU; type: in vivo, Pharbitis purpurea; conditions: Ipomoea purpurea, 504 h, dosage 80 g/ha
Outline: as §1

POLCO = assay: Pre-emergence herbicidal action against POLCO; type: in vivo, Polygonum convolvulus; conditions: Fallopia convolvulus, 504 h, dosage 80 g/ha
Outline: as §1

SETVI [9] = assay: Pre-emergence herbicidal action against SETVI; type: in vivo, Setaria viridis; conditions: Setaria viridis, 504 h; for pest or weed control at 80 g/ha: dosage 80 g/ha
Outline: as §1

STEME [10] = assay: Pre-emergence herbicidal action against STEME; type: in vivo, Stellaria media; conditions: Stellaria media, 504 h; for pest or weed control at 80 g/ha: dosage 80 g/ha
Outline: as §1

VIOTR [11] = assay: Pre-emergence herbicidal action against VIOTR; type: in vivo, Viola tricolor; conditions: Viola tricolor, 504 h; for pest or weed control at 80 g/ha: dosage 80 g/ha
Outline: as §1

DIGSA [12] = assay: Pre-emergence herbicidal action against DIGSA; type: in vivo, Digitaria sanguinalis; conditions: Digitaria sanguinalis, 504 h; for pest or weed control at 80 g/ha: dosage 80 g/ha
Outline: as §1

ABUTH [13] = assay: Post-emergence herbicidal action against ABUTH; type: in vivo, Abutilon theophrasti; conditions: Abutilon theophrasti, 504 h, visual assessment about 3 weeks after treatment vs untreated controls; for pest or weed control at 20 g/ha: dosage 20 g/ha
Outline: (§2)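 Foliar application at one-leaf stage of formulated test compounds, aqueous spray at 600–800 l/ha with 0.2% wetting agent. Greenhouse, optimal conditions, ~3 weeks; damage scored visually in % relative to untreated plants.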

ALOMY [14] = assay: Post-emergence herbicidal action against ALOMY; type: in vivo, Alopecurus myosuroides; conditions: Alopecurus myosuroides, 504 h, visual assessment about 3 weeks after treatment vs untreated controls; for pest or weed control at 20 g/ha: dosage 20 g/ha
Outline: as §2

AMARE [15] = assay: Post-emergence herbicidal action against AMARE; type: in vivo, Amaranthus retroflexus; conditions: Amaranthus retroflexus, 504 h, visual assessment about 3 weeks after treatment, 100% = plants have died, 0% = like control plants
Outline: as §2

AVEFA [16] = assay: Post-emergence herbicidal action against AVEFA; type: in vivo, Avena fatua; conditions: Avena fatua, 504 h, visual assessment about 3 weeks after treatment, 100% = plants have died, 0% = like control plants
Outline: as §2

ECHCG [17] = assay: Post-emergence herbicidal action against ECHCG; type: in vivo, Echinochloa crus-galli; conditions: Echinochloa crus-galli, 504 h; for pest or weed control at 20 g/ha: dosage 20 g/ha
Outline: as §2

HORMU [18] = assay: Post-emergence herbicidal action against HORMU; type: in vivo, Hordeum murinum; conditions: Hordeum murinum, 504 h; for pest or weed control at 20 g/ha: dosage 20 g/ha
Experimental: Seeds of monocotyledonous and dicotyledonous weed and crop plants are laid out in sandy loam soil in wood-fiber pots, covered with soil and cultivated in a greenhouse under good growth conditions. 2 to 3 weeks after sowing, the test plants are treated at the one-leaf stage. The compounds of the invention, formulated in the form of wettable powders (WP) or as emulsion concentrates (EC), are then sprayed onto the green parts of the plants in the form of an aqueous suspension or emulsion at a water application rate equivalent to 600 to 800 l/ha, with addition of 0.2% wetting agent. After the test plants have been left to stand in the greenhouse under optimal growth conditions for about 3 weeks, the action of the preparations is assessed visually in comparison to untreated controls (herbicidal action in percent (%): 100% activity=the plants have died, 0% activity=like control plants). […] The tables below illustrate, in an illustrative manner, the post-emergence herbicidal action of the compounds of the invention, the herbicidal activity being stated in percent.

MATIN [19] = assay: Post-emergence herbicidal action against MATIN; type: in vivo, Matricaria inodora; conditions: Tripleurospermum inodorum, 504 h; for pest or weed control at 20 g/ha: dosage 20 g/ha
Outline: as §2

PHBPU [20] = assay: Post-emergence herbicidal action against PHBPU; type: in vivo, Pharbitis purpurea; conditions: Ipomoea purpurea, 504 h
Outline: as §2

SETVI [21] = assay: Post-emergence herbicidal action against SETVI; type: in vivo, Setaria viridis; conditions: Setaria viridis, 504 h
Outline: as §2

STEME [22] = assay: Post-emergence herbicidal action against STEME; type: in vivo, Stellaria media; conditions: Stellaria media, 504 h
Outline: as §2

VIOTR [23] = assay: Post-emergence herbicidal action against VIOTR; type: in vivo, Viola tricolor; conditions: Viola tricolor, 504 h
Outline: as §2

DIGSA [24] = assay: Post-emergence herbicidal action against DIGSA; type: in vivo, Digitaria sanguinalis; conditions: Digitaria sanguinalis, 504 h
Outline: as §2

VERPE [25] = assay: Pre-emergence herbicidal action against VERPE; type: in vivo, Veronica persica; conditions: Veronica persica, 504 h, dosage 320 g/ha
Outline: as §1

VERPE [26] = assay: Post-emergence herbicidal action against VERPE; type: in vivo, Veronica persica; conditions: Veronica persica, 504 h, 80 g/ha
Outline: as §2

[27] = scored visually after 3 weeks vs untreated controls
[28] = 320 g/ha, scored visually after 3 weeks, 100% = plants have died, 0% = like control plants

Question: Which results are given for `CCn1nnnc1NC(=O)c1ccc(C(F)(F)F)c(C(=O)NC2CC2)c1Cl` [Example 2-131]?
Answer: pest or weed control at 80 g/ha (ABUTH [1]): 100%; pest or weed control at 20 g/ha (ABUTH [1]; dosage 20 g/ha, scored visually after 3 weeks vs untreated controls, 100% = plants have died, 0% = like control plants, read-out: Pre-emergence action against ABUTH (herbicidal activity in percent)): 100%; pest or weed control at 80 g/ha (ALOMY [2]; 80 g/ha, scored visually after 3 weeks vs untreated controls (100% = plants have died, 0% = like control plants)): 100%; pest or weed control at 20 g/ha (ALOMY [2]; 20 g/ha, scored visually after 3 weeks, 100% = plants have died, 0% = like control plants): 90%; pest or weed control at 20 g/ha (AMARE [3]; 20 g/ha, scored visually after 3 weeks vs untreated controls): 100%; pest or weed control at 80 g/ha (AMARE [3]; [27]): 100%; pest or weed control at 80 g/ha (AVEFA [4]): 100%; pest or weed control at 80 g/ha (ECHCG [5]): 100%; pest or weed control at 80 g/ha (HORMU [6]; 80 g/ha): 80%; pest or weed control at 20 g/ha (MATIN [7]; dosage 20 g/ha): 90%; pest or weed control at 80 g/ha (MATIN [7]): 100%; pest or weed control at 80 g/ha (PHBPU [8]): 80%; pest or weed control at 80 g/ha (POLCO): 90%; pest or weed control at 20 g/ha (SETVI [9]; dosage 20 g/ha): 80%; pest or weed control at 80 g/ha (SETVI [9]): 100%; pest or weed control at 20 g/ha (STEME [10]; dosage 20 g/ha): 100%; pest or weed control at 80 g/ha (STEME [10]): 100%; pest or weed control at 20 g/ha (VIOTR [11]; dosage 20 g/ha): 100%; pest or weed control at 80 g/ha (VIOTR [11]): 100%; pest or weed control at 20 g/ha (DIGSA [12]; dosage 20 g/ha): 90%; pest or weed control at 80 g/ha (DIGSA [12]): 100%; pest or weed control at 20 g/ha (ABUTH [13]): 90%; pest or weed control at 20 g/ha (ALOMY [14]): 80%; pest or weed control at 20 g/ha (AMARE [15]; 20 g/ha): 100%; pest or weed control at 5 g/ha (AVEFA [16]; 5 g/ha): 80%; pest or weed control at 20 g/ha (AVEFA [16]; 20 g/ha): 80%; pest or weed control at 20 g/ha (ECHCG [17]): 80%; pest or weed control at 20 g/ha (HORMU [18]): 100%; pest or weed control at 5 g/ha (MATIN [19]; dosage 5 g/ha): 90%; pest or weed control at 20 g/ha (MATIN [19]): 100%; pest or weed control at 20 g/ha (PHBPU [20]; dosage 20 g/ha): 80%; pest or weed control at 5 g/ha (SETVI [21]; dosage 5 g/ha): 90%; pest or weed control at 20 g/ha (SETVI [21]; dosage 20 g/ha): 100%; pest or weed control at 20 g/ha (STEME [22]): 90%; pest or weed control at 5 g/ha (STEME [22]; dosage 5 g/ha): 90%; pest or weed control at 5 g/ha (VIOTR [23]; 5 g/ha): 100%; pest or weed control at 20 g/ha (VIOTR [23]; 20 g/ha): 100%; pest or weed control at 5 g/ha (DIGSA [24]; 5 g/ha): 90%; pest or weed control at 20 g/ha (DIGSA [24]): 90%

Question: Which results are given for `CCNC(=O)c1c(C(F)(F)F)ccc(C(=O)Nc2nnc(C)o2)c1Cl` [Example 6-117]?
Answer: pest or weed control at 80 g/ha (ABUTH [1]): 100%; pest or weed control at 320 g/ha (ABUTH [1]; Dosage: 320 g/ha, scored visually after 3 weeks, 100% = plants have died, 0% = like control plants): 100%; pest or weed control at 320 g/ha (ALOMY [2]; [28]): 90%; pest or weed control at 80 g/ha (AMARE [3]; [27]): 100%; pest or weed control at 320 g/ha (AMARE [3]; 320 g/ha, scored visually after 3 weeks): 100%; pest or weed control at 80 g/ha (AVEFA [4]): 100%; pest or weed control at 320 g/ha (AVEFA [4]; [28]): 100%; pest or weed control at 80 g/ha (ECHCG [5]): 90%; pest or weed control at 320 g/ha (ECHCG [5]; 320 g/ha): 100%; pest or weed control at 320 g/ha (HORMU [6]; 320 g/ha): 100%; pest or weed control at 80 g/ha (MATIN [7]): 100%; pest or weed control at 320 g/ha (MATIN [7]; dosage 320 g/ha): 100%; pest or weed control at 80 g/ha (SETVI [9]): 100%; pest or weed control at 320 g/ha (SETVI [9]; dosage 320 g/ha): 100%; pest or weed control at 80 g/ha (STEME [10]): 100%; pest or weed control at 320 g/ha (STEME [10]; dosage 320 g/ha): 100%; pest or weed control at 320 g/ha (VERPE [25]): 90%; pest or weed control at 80 g/ha (VIOTR [11]): 80%; pest or weed control at 320 g/ha (VIOTR [11]; dosage 320 g/ha): 100%; pest or weed control at 80 g/ha (DIGSA [12]): 100%; pest or weed control at 320 g/ha (DIGSA [12]; dosage 320 g/ha): 100%; pest or weed control at 20 g/ha (ABUTH [13]): 80%; pest or weed control at 80 g/ha (ABUTH [13]; dosage 80 g/ha): 80%; pest or weed control at 20 g/ha (ALOMY [14]): 80%; pest or weed control at 80 g/ha (ALOMY [14]; dosage 80 g/ha): 90%; pest or weed control at 80 g/ha (AMARE [15]; 80 g/ha): 80%; pest or weed control at 80 g/ha (AVEFA [16]; 80 g/ha): 90%; pest or weed control at 20 g/ha (ECHCG [17]): 80%; pest or weed control at 80 g/ha (ECHCG [17]; dosage 80 g/ha): 80%; pest or weed control at 20 g/ha (HORMU [18]): 80%; pest or weed control at 80 g/ha (HORMU [18]; dosage 80 g/ha): 90%; pest or weed control at 20 g/ha (MATIN [19]): 90%; pest or weed control at 80 g/ha (MATIN [19]; dosage 80 g/ha): 90%; pest or weed control at 80 g/ha (PHBPU [20]; dosage 80 g/ha): 80%; pest or weed control at 20 g/ha (STEME [22]): 90%; pest or weed control at 80 g/ha (STEME [22]; 80 g/ha): 90%; pest or weed control at 80 g/ha (VERPE [26]): 80%; pest or weed control at 80 g/ha (VIOTR [23]; 80 g/ha): 80%; pest or weed control at 20 g/ha (DIGSA [24]): 80%; pest or weed control at 80 g/ha (DIGSA [24]; 80 g/ha): 90%
